The record followed here is patent US12581252B2, “Substituted pyrrolo[3,4-b]pyridines as PI3K-α inhibitors” (Relay Therapeutics, Inc., priority 2020, dated 2026).

Molecules are shown by their SMILES.

In this test the target is H1047R PIK3CA enzyme (Homo sapiens, UniProt P42336, H1047R). Briefly: ADP-Glo Biochemical PIK3CA Kinase Assay. A general note: In ADP-Glo the light output rises with the ADP produced.
Chain of H1047R PIK3CA enzyme (P42336 whole entry H1047R): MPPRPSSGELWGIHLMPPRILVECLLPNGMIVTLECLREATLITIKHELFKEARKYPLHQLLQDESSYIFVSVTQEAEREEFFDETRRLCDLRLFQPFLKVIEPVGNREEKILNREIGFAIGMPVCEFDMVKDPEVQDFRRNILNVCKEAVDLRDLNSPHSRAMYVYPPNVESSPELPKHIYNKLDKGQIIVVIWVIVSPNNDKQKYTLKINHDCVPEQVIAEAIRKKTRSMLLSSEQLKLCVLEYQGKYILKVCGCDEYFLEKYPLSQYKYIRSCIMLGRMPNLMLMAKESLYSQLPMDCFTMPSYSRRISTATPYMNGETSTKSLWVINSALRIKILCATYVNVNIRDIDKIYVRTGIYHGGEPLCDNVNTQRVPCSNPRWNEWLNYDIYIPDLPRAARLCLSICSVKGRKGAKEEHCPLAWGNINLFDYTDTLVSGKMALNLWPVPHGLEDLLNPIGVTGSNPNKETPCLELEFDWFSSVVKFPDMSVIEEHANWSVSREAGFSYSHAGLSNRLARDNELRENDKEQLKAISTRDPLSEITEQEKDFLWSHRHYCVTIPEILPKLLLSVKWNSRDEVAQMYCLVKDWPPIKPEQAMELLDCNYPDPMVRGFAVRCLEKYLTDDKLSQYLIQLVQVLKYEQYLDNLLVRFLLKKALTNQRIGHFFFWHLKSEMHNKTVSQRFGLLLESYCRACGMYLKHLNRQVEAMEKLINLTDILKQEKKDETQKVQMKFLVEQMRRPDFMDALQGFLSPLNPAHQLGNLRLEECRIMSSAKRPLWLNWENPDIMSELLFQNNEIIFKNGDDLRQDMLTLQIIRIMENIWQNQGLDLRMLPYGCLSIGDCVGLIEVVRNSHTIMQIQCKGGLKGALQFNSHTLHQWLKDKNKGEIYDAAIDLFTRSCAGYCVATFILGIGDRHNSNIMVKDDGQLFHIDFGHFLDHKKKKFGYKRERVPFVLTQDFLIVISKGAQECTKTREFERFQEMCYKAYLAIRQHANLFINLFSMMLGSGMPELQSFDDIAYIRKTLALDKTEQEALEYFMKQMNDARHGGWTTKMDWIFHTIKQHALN
Chain of H1047R PIK3CA enzyme (P27986 whole entry partner): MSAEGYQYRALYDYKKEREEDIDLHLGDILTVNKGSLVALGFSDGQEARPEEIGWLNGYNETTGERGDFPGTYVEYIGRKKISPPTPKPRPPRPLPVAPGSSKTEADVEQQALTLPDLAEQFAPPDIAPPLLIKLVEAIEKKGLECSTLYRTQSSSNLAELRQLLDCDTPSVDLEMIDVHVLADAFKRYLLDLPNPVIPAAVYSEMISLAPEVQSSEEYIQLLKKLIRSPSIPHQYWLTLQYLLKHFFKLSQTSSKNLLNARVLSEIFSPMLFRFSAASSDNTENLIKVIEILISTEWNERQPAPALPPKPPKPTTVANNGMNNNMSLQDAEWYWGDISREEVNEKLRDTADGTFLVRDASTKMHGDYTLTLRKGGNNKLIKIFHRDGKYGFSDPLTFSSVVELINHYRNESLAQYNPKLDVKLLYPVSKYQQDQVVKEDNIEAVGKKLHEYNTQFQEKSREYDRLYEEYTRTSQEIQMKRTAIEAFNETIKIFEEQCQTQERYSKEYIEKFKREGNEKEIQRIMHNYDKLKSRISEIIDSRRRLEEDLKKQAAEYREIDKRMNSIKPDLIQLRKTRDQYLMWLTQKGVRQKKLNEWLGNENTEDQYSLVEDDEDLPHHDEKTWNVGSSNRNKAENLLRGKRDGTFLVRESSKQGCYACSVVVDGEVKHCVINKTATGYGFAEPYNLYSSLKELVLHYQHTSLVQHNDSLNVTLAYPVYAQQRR
In general, IC50 refers to the point on the concentration scale where inhibition reaches its midpoint. A high value points to a need for much substance. The compound `O=C1N[C@@H](c2cc(F)ccc2Cl)c2c(NC(=O)N3C[C@](O)(C(F)(F)F)c4cc(F)ccc43)cc(-n3ccnn3)cc21` (single isomer, unassigned) [Compound I-2550] had an IC50 of 1000 to 10000 nM.
For `Cc1ccccc1C1NC(=O)c2cccc(NC(=O)N3CCCc4ccccc43)c21` (centres unmarked) [Compound I-55], the IC50 was 1000 to 10000 nM.
With `CN1CCCC[C@@H]1[C@@H]1NC(=O)c2cccc(NC(=O)c3cc(F)cc(C(F)(F)F)c3)c21` (racemic) [Compound I-1713] the figure was 10000 to 100000 nM; with `Cc1ccccc1C1NC(=O)c2cc(C(C)C)cc(NC(=O)c3cc(F)cc(C(F)(F)F)c3)c21` (centres unmarked) [Compound I-266, 3-Fluoro-N-[3-(2-methylphenyl)-6-(isopropyl)-1-oxo-2,3-dihydro-1H-isoindol-4-yl]-5-(trifluoromethyl)benzamide], 100 to 500 nM.
The figure for `O=C1N[C@H](c2cc(F)ccc2Cl)c2c(NC(=O)N3C[C@@H](O)c4ccc(F)cc43)cccc21` (stereo in doubt) [Compound I-2173] is 1000 to 10000 nM.
With `Cc1ccccc1C1NC(=O)c2cccc(NC(=O)c3csc4cccc(F)c34)c21` (centres unmarked) [Compound I-67] the figure was 1000 to 10000 nM.
Take `O=C(Nc1cc(Br)cc2c1C(c1cc(F)ccc1Cl)NC2=O)c1ccc(F)c(Cl)c1` (centres unmarked) [Compound I-565]: the IC50 is 500 to 1000 nM.
With `O=C1N[C@H](c2cc(F)ccc2Cl)c2c(NC(=O)N3C[C@](O)(C(F)F)c4ccccc43)cccc21` (single isomer, unassigned) [Compound I-2486], the IC50 lay in the range of 10000 to 100000 nM.
Consider `N#Cc1cnccc1-c1cc(NC(=O)c2cc(F)cc(C(F)(F)F)c2)c2c(n1)C(=O)NC2c1cc(F)ccc1Cl` (centres unmarked) [Compound I-549], for which the IC50 is no more than 100 nM.
In turn, `O=C(Nc1cc(-c2cccnc2)nc2c1C(c1cc(F)ccc1Cl)NC2=O)c1cc(F)cc(Cl)c1` (centres unmarked) [Compound I-455] came in with an IC50 of 100 to 500 nM.
On to `O=C(Nc1cc(Br)cc2c1[C@@H](c1c(F)cccc1Cl)NC2=O)c1cc(F)cc(C(F)(F)F)c1` [Compound I-679], for which the IC50 was 1000 to 10000 nM.
On to `O=C(Nc1cccc2c1C(c1ccccc1C1CC1)NC2=O)c1cc(F)cc(C(F)(F)F)c1` (centres unmarked) [Compound I-925], for which the IC50 fell in the range of 100 to 500 nM.
Regarding `O=C1NC(c2cc(F)ccc2Cl)c2c(NC(=O)N3CCC(O)C3)cc(-c3ccc4ncnn4c3)cc21` (centres unmarked) [Compound I-1718], the IC50 lay in the range of 10000 to 100000 nM.
For `Cc1ccccc1C1NC(=O)c2cccc(NC(=O)c3cc(F)cc(C4COC4)c3)c21` (centres unmarked) [Compound I-657], the IC50 was in the range of 1000 to 10000 nM.
In turn, `COc1ncc(-c2cc(NC(=O)c3cc(F)cc(C(F)(F)F)c3)c3c(c2)C(=O)N[C@@H]3c2cc(F)ccc2Cl)cn1` [Compound I-881] yielded an IC50 of 1000 to 10000 nM.
With `O=C1NC(c2cc(F)ccc2Cl)c2c(Nc3nn(CCO)c4ccccc34)cc(-c3ccc4ncnn4c3)cc21` (centres unmarked) [Compound I-1807], the IC50 was 1000 to 10000 nM.
Compound `O=C1NC(c2cc(F)ccc2Cl)c2c(NC(=O)N3CCCC(F)(F)C3)cc(Br)cc21` (centres unmarked) [Compound I-544] came in with an IC50 of 1000 to 10000 nM.
With `O=C(Nc1cc(-c2ccc3ncnn3c2)cc2c1[C@@H](c1cc(F)ccc1Cl)NC2=O)c1cc(F)cc2c1NC(=O)C2(F)F` [Compound I-1583] the figure was 1000 to 10000 nM; with `CC1(Cc2cc(NC(=O)N3CC(O)c4cc(F)ccc43)c3c(c2)C(=O)NC3c2cc(F)ccc2Cl)COC1` (centres unmarked) [Compound I-2490], 500 to 1000 nM.
For `N#Cc1c(-c2cc(NC(=O)c3cc(F)cc(C(F)(F)F)c3)c3c(c2)C(=O)NC3c2cc(F)ccc2Cl)cnn1C(F)F` (centres unmarked) [Compound I-1862], the IC50 is no more than 100 nM.
As to `CC(O)Cc1cc(NC(=O)c2cc(F)cc(C(F)(F)F)c2)c2c(c1)C(=O)NC2c1cc(F)ccc1Cl` (racemic) [Compound I-665], the half-inhibitory concentration (IC50) is no more than 100 nM.
Turning to `O=C1N[C@@H](c2cc(F)ccc2Cl)c2c(NC(=O)N3CCOCC(F)(F)C3)cc(Br)cc21` (single isomer, unassigned) [Compound I-2242], the IC50 was in the range of 10000 to 100000 nM.
The compound `CC(C)(O)COc1cc(NC(=O)c2cc(F)cc(C(F)(F)F)c2)c2c(c1)C(=O)N[C@H]2c1cc(F)ccc1Cl` [Compound I-740] had an IC50 of no more than 100 nM.
With `O=C1NC(c2cc(F)ccc2Cl)c2c(Nc3ccn(C4CC4)n3)cc(-c3ccc4ncnn4c3)cc21` (centres unmarked) [Compound I-1993] the figure was 10000 to 100000 nM.
The compound `COc1cc(C)c(C(=O)Nc2cccc3c2C(c2ccccc2C)NC3=O)cn1` (centres unmarked) [Compound I-501] registered a concentration for half-maximal inhibition (IC50) of 10000 to 100000 nM.
The figure for `O=C(Nc1cc(N2CC(F)(F)C2)nc2c1[C@H](c1cc(F)ccc1Cl)NC2=O)c1cc(F)cc(C(F)(F)F)c1` [Compound I-366] is no more than 100 nM; for `Cc1ncc(-c2cc(NC(=O)c3cc(F)cc(C(F)(F)F)c3)c3c(c2)C(=O)NC3c2cc(F)ccc2Cl)cn1` (centres unmarked) [Compound I-732] it is no more than 100 nM; for `O=C1N[C@H](c2cc(F)ccc2Cl)c2c(NC(=O)N3C[C@@](O)(C(F)F)c4cc(F)ccc43)cc(F)cc21` (single isomer, unassigned) [Compound I-2632] it is 1000 to 10000 nM.
For the compound `CC(C)(O)C(O)c1cc(NC(=O)c2cc(F)cc(C(F)(F)F)c2)c2c(c1)C(=O)NC2c1cc(F)ccc1Cl` (racemic) [Compound I-1307], the IC50 fell in the range of 100 to 500 nM.
In turn, `O=C(Nc1cc(-c2ncc[nH]2)cc2c1C(c1cc(F)ccc1Cl)NC2=O)c1cc(F)cc(C(F)(F)F)c1` (centres unmarked) [Compound I-712] yielded an IC50 of no more than 100 nM.
With `O=C1N[C@@H](c2cc(F)ccc2Cl)c2c(NC(=O)N3C[C@](O)(C(F)F)c4ccccc43)cccc21` (single isomer, unassigned) [Compound I-2485], the IC50 fell in the range of 1000 to 10000 nM.
Consider `CC(C)n1cc(-c2cc(NC(=O)c3cc(F)cc(C(F)(F)F)c3)c3c(c2)C(=O)N[C@H]3c2cc(F)ccc2Cl)ccc1=O` [Compound I-743], for which the IC50 was no more than 100 nM.
The compound `O=C(Nc1cccc2c1C(c1cccc(C3CC3)c1)NC2=O)c1cc(F)cc(C(F)(F)F)c1` (centres unmarked) [Compound I-718] showed an IC50 of 10000 to 100000 nM.
With `Cc1ccccc1C1NC(=O)c2c(C#N)ncc(NC(=O)c3cc(F)cc(C(F)(F)F)c3)c21` (centres unmarked) [Compound I-236] the figure was 1000 to 10000 nM.
`O=C1NC(c2cc(F)ccc2Cl)c2c(NC(=O)C3CC4(CCC4)C3)cc(Br)cc21` (centres unmarked) [Compound I-1362]: the IC50 lay in the range of 1000 to 10000 nM.
`O=C1N[C@@H](c2cc(F)ccc2Cl)c2c1cc(-c1ccc3ncnn3c1)cc2S(=O)(=O)Cc1ccccc1` (single isomer, unassigned) [Compound I-1906] had an IC50 of 10000 to 100000 nM.
As to `O=C(Nc1cc(N2CC3(CNC3)C2)cc2c1C(c1cc(F)ccc1Cl)NC2=O)c1cc(F)cc(C(F)(F)F)c1` (centres unmarked) [Compound I-1299], the IC50 lay in the range of 100 to 500 nM.
`O=C(Nc1cc(Cc2ccc3c(c2)CNC3=O)cc2c1[C@@H](c1cc(F)ccc1Cl)NC2=O)c1cc(F)cc(C(F)(F)F)c1` (stereo in doubt) [Compound I-1613] came in with an IC50 of 100 to 500 nM.
In turn, `O=C1N[C@H](c2cc(F)ccc2Cl)c2c(NC(=O)N3C[C@@H](O)c4cc(F)ccc43)cccc21` (single isomer, unassigned) [Compound I-2129] showed an IC50 of 10000 to 100000 nM.
With `O=C1N[C@@H](c2cc(F)ccc2Cl)c2c(NC(=O)N3C[C@H](CO)[C@@H](C(F)(F)F)C3)cccc21` (single isomer, unassigned) [Compound I-2279] the figure was 10000 to 100000 nM; with `O=C(Nc1cc(-c2ccc3nnc(C(F)F)n3c2)cc2c1[C@@H](c1cc(F)ccc1Cl)NC2=O)c1cc(F)cc(C(F)(F)F)c1` [Compound I-1924], 1000 to 10000 nM.
